The source of these data is patent EP4722212A1, “NOVEL COMPOUND FOR INHIBITING PROTEIN KINASES AND PHARMACEUTICAL COMPOSITION COMPRISING SAME” (Magicbullettherapeutics Co., Ltd., priority 2023, dated 2024).

For one experiment, the system named is C4-2B. As to the kind of experiment: Cell line inhibition analysis (CCK-8, 72 h). The experiment is classed as cell-based. As to conditions: read-out: Cell growth inhibition GI50 C4-2B. Here is the method: C4-2B and 22Rv1 cells were purchased from ATCC and cultured according to the manufacturer's instructions. The cells were seeded in 96-well plates at 7×10^3cells/100 µl/well and allowed to attach for one day. After removing the culture medium, 90 µl/well of fresh culture medium was added, followed by addition of 10 µl/well of culture medium containing compounds at nine concentrations (0.076-500 µM) serially diluted 3-fold and DMSO control to achieve final concentrations of 0-50 µM, and then cultured for 72 hours in a 37 °C CO2 incubator. Cell proliferation after 72 hours was assessed by adding 10 µl/well of CCK-8 solution, orbital shaking for 30 seconds, then incubating at 37 °C CO2 incubator for 2 hours and measuring absorbance at 450 nm using a microplate reader. The measured absorbance values were corrected by subtracting the absorbance of wells containing only culture medium and CCK-8 solution, and GI50 values were calculated using GraphPad Prism 8 software.
Meanwhile, in a separate 96-well plate, cells were seeded at 7 × 10^3 cells/100 µl/well, allowed to attach for one day, CCK-8 solution was added, and absorbance was measured to establish the 'Growth (%) = 0' value.

The target in another experiment is T1, ACK1 (Homo sapiens, UniProt Q07912).
T1 construct: purchased Reaction Biology (RBC)
T1 sequence (Q07912 whole entry): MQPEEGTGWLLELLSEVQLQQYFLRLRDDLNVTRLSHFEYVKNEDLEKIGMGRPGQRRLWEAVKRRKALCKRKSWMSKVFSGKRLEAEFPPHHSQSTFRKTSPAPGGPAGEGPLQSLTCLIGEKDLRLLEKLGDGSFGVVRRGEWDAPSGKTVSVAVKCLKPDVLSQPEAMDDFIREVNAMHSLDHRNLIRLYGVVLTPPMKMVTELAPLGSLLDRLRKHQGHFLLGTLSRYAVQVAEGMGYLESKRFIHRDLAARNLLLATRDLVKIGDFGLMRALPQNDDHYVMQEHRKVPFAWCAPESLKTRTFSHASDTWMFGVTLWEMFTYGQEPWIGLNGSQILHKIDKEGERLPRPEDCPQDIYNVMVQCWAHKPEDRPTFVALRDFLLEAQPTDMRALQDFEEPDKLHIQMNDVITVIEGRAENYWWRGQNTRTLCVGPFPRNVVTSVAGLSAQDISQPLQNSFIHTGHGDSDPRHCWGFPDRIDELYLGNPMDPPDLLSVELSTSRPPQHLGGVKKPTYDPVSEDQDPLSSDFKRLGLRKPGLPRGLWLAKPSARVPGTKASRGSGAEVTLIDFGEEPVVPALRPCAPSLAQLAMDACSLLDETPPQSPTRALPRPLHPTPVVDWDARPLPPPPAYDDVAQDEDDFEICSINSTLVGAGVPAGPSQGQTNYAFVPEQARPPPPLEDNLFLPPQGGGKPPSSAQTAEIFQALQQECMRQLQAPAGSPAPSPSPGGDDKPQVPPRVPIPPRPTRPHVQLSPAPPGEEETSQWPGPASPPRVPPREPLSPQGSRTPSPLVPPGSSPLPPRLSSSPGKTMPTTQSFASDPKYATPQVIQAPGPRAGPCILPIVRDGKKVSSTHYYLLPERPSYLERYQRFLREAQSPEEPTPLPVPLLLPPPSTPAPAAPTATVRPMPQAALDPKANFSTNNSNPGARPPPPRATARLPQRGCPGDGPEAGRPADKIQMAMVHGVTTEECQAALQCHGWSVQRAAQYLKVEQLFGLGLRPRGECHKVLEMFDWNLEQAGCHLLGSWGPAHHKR
As to the kind of experiment: Enzyme activity inhibition (Reaction Biology). Type of experiment: biochemical. As to the method: [* <10 nM: A, <100 nM: B, >100 nM: C]. [Table 7]

A value given as a limit tells only on which side of the number the result lay.

Regarding `Cc1ccc(NC(=O)c2ccc(F)c(F)c2)cc1N1Cc2cnc(NC3CC3)nc2C2(CC2)C1=O` [Compound 10, N-(3-(2'-(cyclopropylamino)-7'-oxo-5'H-spiro[cyclopropane-1,8'-pyrido[4,3-d]pyrimidine]-6'(7'H)-yl)-4-methylphenyl)-3,4-difluorobenzamide], in the experiment with C4-2B, the GI50 is more than 10 µM.
Still for that read-out and setting: the figure for `Cc1ccc(NC(=O)c2cc(N3CCN(C)CC3)cc(C(F)(F)F)c2)cc1N1Cc2cnc(NC3CC3)nc2C2(CC2)C1=O` [Compound 32, N-(3-(2'-(cyclopropylamino)-7'-oxo-5'H-spiro[cyclopropane-1,8'-pyrido[4,3-d]pyrimidine]-6'(7'H)-yl)-4-methylphenyl)-3-(4-methylpiperazin-1-yl)-5-(trifluoromethyl)benzamide] is 1 to 5 µM; for `Cc1ccc(NC(=O)c2cc(O)cc(C(F)(F)F)c2)cc1N1Cc2cnc(N)nc2C2(CC2)C1=O` [Compound 23, N-(3-(2'-amino-7'-oxo-5'H-spiro[cyclopropane-1,8'-pyrido[4,3-d]pyrimidine]-6'(7'H)-yl)-4-methylphenyl)-3-hydroxy-5-(trifluoromethyl)benzamide] it is 5 to 10 µM; for `Cc1ccc(NC(=O)c2cc(N3CCN(C)CC3)cc(C(F)(F)F)c2)cc1N1Cc2cnc(N)nc2C2(CC2)C1=O` [Compound 33, N-(3-(2'-amino-7'-oxo-5'H-spiro[cyclopropane-1,8'-pyrido[4,3-d]pyrimidine]-6'(7'H)-yl)-4-methylphenyl)-3-(4-methylpiperazin-1-yl)-5-(trifluoromethyl)benzamide] it is 5 to 10 µM.
On the same count and under the same terms, the figure for `Cc1ccc(NC(=O)c2cc(F)cc(F)c2)cc1N1Cc2cnc(N)nc2C2(CC2)C1=O` [Compound 15, N-(3-(2'-amino-7'-oxo-5'H-spiro[cyclopropane-1,8'-pyrido[4,3-d]pyrimidine]-6'(7'H)-yl)-4-methylphenyl)-3,5-difluorobenzamide] is 5 to 10 µM; for `Cc1ccc(NC(=O)c2cc(C(F)(F)F)ccc2F)cc1N1Cc2cnc(N)nc2C2(CC2)C1=O` [Compound 18, N-(3-(2'-amino-7'-oxo-5'H-spiro[cyclopropane-1,8'-pyrido[4,3-d]pyrimidine]-6'(7'H)-yl)-4-methylphenyl)-2-fluoro-5-(trifluoromethyl)benzamide] it is more than 10 µM; for `Cc1ccc(NC(=O)c2cc(Br)cc(C(F)(F)F)c2)cc1N1Cc2cnc(NC3CC3)nc2C2(CC2)C1=O` [Compound 13, 3-bromo-N-(3-(2'-(cyclopropylamino)-7'-oxo-5'H-spiro[cyclopropane-1,8'-pyrido[4,3-d]pyrimidine]-6'(7'H)-yl)-4-methylphenyl)-5-(trifluoromethyl)benzamide] it is more than 10 µM.
On the same count and under the same terms, next, `Cc1ccc(NC(=O)c2cc(N3CCNCC3)cc(C(F)(F)F)c2)cc1N1Cc2cnc(NC3CC3)nc2C2(CC2)C1=O` [Compound 35, N-(3-(2'-(cyclopropylamino)-7'-oxo-5'H-spiro[cyclopropane-1,8'-pyrido[4,3-d]pyrimidine]-6'(7'H)-yl)-4-methylphenyl)-3-(piperazin-1-yl)-5-(trifluoromethyl)benzamide]: 5 to 10 µM; `Cc1ccc(NC(=O)c2ccnc(C(F)(F)F)c2)cc1N1Cc2cnc(N)nc2C2(CC2)C1=O` [Compound 22, N-(3-(2'-amino-7'-oxo-5'H-spiro[cyclopropane-1,8'-pyrido[4,3-d]pyrimidine]-6'(7'H)-yl)-4-methylphenyl)-2-(trifluoromethyl)isonicotinamide]: more than 10 µM.
In the case of `Cc1ccc(NC(=O)c2cc(N(C)CCN(C)C)cc(C(F)(F)F)c2)cc1N1Cc2cnc(NC3CC3)nc2C2(CC2)C1=O` [Compound 36, N-(3-(2'-(cyclopropylamino)-7'-oxo-5'H-spiro[cyclopropane-1,8'-pyrido[4,3-d]pyrimidine]-6'(7'H)-yl)-4-methylphenyl)-3-((2-(dimethylamino)ethyl)(methyl)amino)-5-(trifluoromethyl)benzamide], the GI50 with C4-2B lay within 5 to 10 µM.
Turning to `COCCN(C)c1cc(C(=O)Nc2ccc(C)c(N3Cc4cnc(NC5CC5)nc4C4(CC4)C3=O)c2)cc(C(F)(F)F)c1` [Compound 30, N-(3-(2'-(cyclopropylamino)-7'-oxo-5'H-spiro[cyclopropane-1,8'-pyrido[4,3-d]pyrimidine]-6'(7'H)-yl)-4-methylphenyl)-3-((2-methoxyethyl)(methyl)amino)-5-(trifluoromethyl)benzamide], the GI50 in the experiment with C4-2B lay within 1 to 5 µM.
The same measure, in the same setting: next, `Cc1ccc(NC(=O)c2ccc(F)c(F)c2)cc1N1Cc2cnc(N)nc2C2(CC2)C1=O` [Compound 9, N-(3-(2'-amino-7'-oxo-5'H-spiro[cyclopropane-1,8'-pyrido[4,3-d]pyrimidine]-6'(7'H)-yl)-4-methylphenyl)-3,4-difluorobenzamide]: more than 10 µM; `Cc1ccc(NC(=O)c2cccc(C(F)(F)F)n2)cc1N1Cc2cnc(N)nc2C2(CC2)C1=O` [Compound 21, N-(3-(2'-amino-7'-oxo-5'H-spiro[cyclopropane-1,8'-pyrido[4,3-d]pyrimidine]-6'(7'H)-yl)-4-methylphenyl)-6-(trifluoromethyl)picolinamide]: more than 10 µM.
Molecule `Cc1ccc(NC(=O)c2cccc(C(F)(F)F)c2)cc1N1Cc2cnc(NO)nc2C2(CC2)C1=O` [Compound 70, N-(3-(2'-(hydroxyamino)-7'-oxo-5'H-spiro[cyclopropane-1,8'-pyrido[4,3-d]pyrimidine]-6'(7'H)-yl)-4-methylphenyl)-3-(trifluoromethyl)benzamide] displayed an IC50 against ACK1 of 0.01 to 0.1 µM.
Regarding `Cc1ccc(NC(=O)c2ccc(F)cc2F)cc1N1Cc2cnc(N)nc2C2(CC2)C1=O` [Compound 14, N-(3-(2'-amino-7'-oxo-5'H-spiro[cyclopropane-1,8'-pyrido[4,3-d]pyrimidine]-6'(7'H)-yl)-4-methylphenyl)-2,4-difluorobenzamide], in the experiment with C4-2B, the GI50 was more than 10 µM.
For `Cc1ccc(NC(=O)c2cc(F)cc(C(F)(F)F)c2)cc1N1Cc2cnc(NC3CC3)nc2C2(CC2)C1=O` [Compound 27, N-(3-(2'-(cyclopropylamino)-7'-oxo-5'H-spiro[cyclopropane-1,8'-pyrido[4,3-d]pyrimidine]-6'(7'H)-yl)-4-methylphenyl)-3-fluoro-5-(trifluoromethyl)benzamide], the concentration for 50% growth inhibition (GI50) in the experiment on C4-2B lay in the range of 5 to 10 µM.
The same measure, in the same setting: next, `Cc1ccc(NC(=O)c2cc(N3CCNCC3)cc(C(F)(F)F)c2)cc1N1Cc2cnc(N)nc2C2(CC2)C1=O` [Compound 34, N-(3-(2'-amino-7'-oxo-5'H-spiro[cyclopropane-1,8'-pyrido[4,3-d]pyrimidine]-6'(7'H)-yl)-4-methylphenyl)-3-(piperazin-1-yl)-5-(trifluoromethyl)benzamide]: 5 to 10 µM; `Cc1ccc(NC(=O)c2cc(F)cc(F)c2)cc1N1Cc2cnc(NC3CC3)nc2C2(CC2)C1=O` [Compound 11, N-(3-(2'-(cyclopropylamino)-7'-oxo-5'H-spiro[cyclopropane-1,8'-pyrido[4,3-d]pyrimidine]-6'(7'H)-yl)-4-methylphenyl)-3,5-difluorobenzamide]: more than 10 µM.
On the same count and under the same terms, the figure for `Cc1ccc(NC(=O)c2cc(C(F)(F)F)cc(Cl)c2F)cc1N1Cc2cnc(N)nc2C2(CC2)C1=O` [Compound 17, N-(3-(2'-amino-7'-oxo-5'H-spiro[cyclopropane-1,8'-pyrido[4,3-d]pyrimidine]-6'(7'H)-yl)-4-methylphenyl)-3-chloro-2-fluoro-5-(trifluoromethyl)benzamide] is more than 10 µM.
The same measure, in the same setting: the figure for `COc1cccc(C(=O)Nc2ccc(C)c(N3Cc4cnc(N)nc4C4(CC4)C3=O)c2)c1` [Compound 16, N-(3-(2'-amino-7'-oxo-5'H-spiro[cyclopropane-1,8'-pyrido[4,3-d]pyrimidine]-6'(7'H)-yl)-4-methylphenyl)-3-methoxybenzamide] is more than 10 µM.
Take `Cc1ccc(NC(=O)c2ccc(C)c(C(F)(F)F)c2)cc1N1Cc2cnc(NC3CC3)nc2C2(CC2)C1=O` [Compound 12, N-(3-(2'-(cyclopropylamino)-7'-oxo-5'H-spiro[cyclopropane-1,8'-pyrido[4,3-d]pyrimidine]-6'(7'H)-yl)-4-methylphenyl)-4-methyl-3-(trifluoromethyl)benzamide]: the GI50 in the experiment with C4-2B lay in the range of 1 to 5 µM.
On the same count and under the same terms, the figure for `Cc1ccc(NC(=O)c2cc(N(C)CCN(C)C)cc(C(F)(F)F)c2)cc1N1Cc2cnc(N)nc2C2(CC2)C1=O` [Compound 37, N-(3-(2'-amino-7'-oxo-5'H-spiro[cyclopropane-1,8'-pyrido[4,3-d]pyrimidine]-6'(7'H)-yl)-4-methylphenyl)-3-((2-(dimethylamino)ethyl)(methyl)amino)-5-(trifluoromethyl)benzamide] is more than 10 µM.

In general, GI50 refers to the concentration giving 50% growth inhibition. One may read the IC50 as the point on the concentration scale where inhibition reaches its midpoint. A higher IC50 goes with weaker potency in that assay.
